Test results as given in ChEMBL document CHEMBL5634117 (Eur J Med Chem, 2023).

Legend:
[1] = test system: OVCAR-5; assay: Growth inhibition of human OVCAR-5 cells assessed as reduction in cell viability measured after 48 hrs by SRB assay; format: functional
[2] = test system: HOP-62; assay: Growth inhibition of human HOP-62 cells assessed as reduction in cell viability measured after 48 hrs by SRB assay; format: functional
[3] = test system: MDA-MB-468; assay: Growth inhibition of human MDA-MB-468 cells assessed as reduction in cell viability measured after 48 hrs by SRB assay; format: functional
[4] = test system: SK-MEL-28; assay: Growth inhibition of human SK-MEL-28 cells assessed as reduction in cell viability measured after 48 hrs by SRB assay; format: functional
[5] = molecular target: Mitogen-activated protein kinase 10 (Homo sapiens, UniProt P53779); assay: Inhibition of human JNK3 at 10 uM in presence of ATP relative to control
[6] = test system: Hs-578T; assay: Growth inhibition of human Hs-578T cells assessed as reduction in cell viability measured after 48 hrs by SRB assay; format: functional
[7] = test system: UO-31; assay: Growth inhibition of human UO-31 cells assessed as reduction in cell viability measured after 48 hrs by SRB assay; format: functional
[8] = test system: NCI/ADR-RES; assay: Growth inhibition of human NCI/ADR-RES cells assessed as reduction in cell viability measured after 48 hrs by SRB assay; format: functional
[9] = test system: MDA-MB-231; assay: Growth inhibition of human MDA-MB-231 cells assessed as reduction in cell viability measured after 48 hrs by SRB assay; format: functional
[10] = test system: EKVX; assay: Growth inhibition of human EKVX cells assessed as reduction in cell viability measured after 48 hrs by SRB assay; format: functional
[11] = test system: SK-MEL-5; assay: Growth inhibition of human SK-MEL-5 cells assessed as reduction in cell viability measured after 48 hrs by SRB assay; format: functional
[12] = test system: SR; assay: Growth inhibition of human SR cells assessed as reduction in cell viability measured after 48 hrs by SRB assay; format: functional
[13] = test system: UACC-62; assay: Growth inhibition of human UACC-62 cells assessed as reduction in cell viability measured after 48 hrs by SRB assay; format: functional
[14] = test system: U-251; assay: Growth inhibition of human U-251 cells assessed as reduction in cell viability measured after 48 hrs by SRB assay; format: functional
[15] = test system: TK-10; assay: Growth inhibition of human TK-10 cells assessed as reduction in cell viability measured after 48 hrs by SRB assay; format: functional
[16] = test system: KM12; assay: Growth inhibition of human KM12 cells assessed as reduction in cell viability measured after 48 hrs by SRB assay; format: functional
[17] = test system: NCI-H226; assay: Growth inhibition of human NCI-H226 cells assessed as reduction in cell viability measured after 48 hrs by SRB assay; format: functional
[18] = test system: MOLT-4; assay: Growth inhibition of human MOLT-4 cells assessed as reduction in cell viability measured after 48 hrs by SRB assay; format: functional
[19] = test system: M14; assay: Growth inhibition of human M14 cells assessed as reduction in cell viability measured after 48 hrs by SRB assay; format: functional
[20] = molecular target: Mitogen-activated protein kinase 9 (Homo sapiens, UniProt P45984); assay: Inhibition of human JNK2 at 10 uM in presence of ATP relative to control
[21] = test system: NCI-H522; assay: Growth inhibition of human NCI-H522 cells assessed as reduction in cell viability measured after 48 hrs by SRB assay; format: functional
[22] = test system: DU-145; assay: Growth inhibition of human DU-145 cells assessed as reduction in cell viability measured after 48 hrs by SRB assay; format: functional
[23] = test system: COLO 205; assay: Growth inhibition of human COLO 205 cells assessed as reduction in cell viability measured after 48 hrs by SRB assay; format: functional
[24] = test system: LOX IMVI; assay: Growth inhibition of human LOX IMVI cells assessed as reduction in cell viability measured after 48 hrs by SRB assay; format: functional
[25] = test system: UACC-257; assay: Growth inhibition of human UACC-257 cells assessed as reduction in cell viability measured after 48 hrs by SRB assay; format: functional
[26] = test system: OVCAR-4; assay: Growth inhibition of human OVCAR-4 cells assessed as reduction in cell viability measured after 48 hrs by SRB assay; format: functional
[27] = test system: CAKI-1; assay: Growth inhibition of human CAKI-1 cells assessed as reduction in cell viability measured after 48 hrs by SRB assay; format: functional
[28] = test system: OVCAR-3; assay: Growth inhibition of human OVCAR-3 cells assessed as reduction in cell viability measured after 48 hrs by SRB assay; format: functional
[29] = test system: SNB-75; assay: Growth inhibition of human SNB-75 cells assessed as reduction in cell viability measured after 48 hrs by SRB assay; format: functional
[30] = test system: IGROV-1; assay: Growth inhibition of human IGROV-1 cells assessed as reduction in cell viability measured after 48 hrs by SRB assay; format: functional
[31] = test system: MCF7; assay: Growth inhibition of human MCF7 cells assessed as reduction in cell viability measured after 48 hrs by SRB assay; format: functional
[32] = test system: Malme-3M; assay: Growth inhibition of human Malme-3M cells assessed as reduction in cell viability measured after 48 hrs by SRB assay; format: functional
[33] = test system: HOP-92; assay: Growth inhibition of human HOP-92 cells assessed as reduction in cell viability measured after 48 hrs by SRB assay; format: functional
[34] = test system: PC-3; assay: Growth inhibition of human PC-3 cells assessed as reduction in cell viability measured after 48 hrs by SRB assay; format: functional
[35] = test system: SK-MEL-2; assay: Growth inhibition of human SK-MEL-2 cells assessed as reduction in cell viability measured after 48 hrs by SRB assay; format: functional
[36] = test system: SN12C; assay: Growth inhibition of human SN12C cells assessed as reduction in cell viability measured after 48 hrs by SRB assay; format: functional
[37] = test system: SNB-19; assay: Growth inhibition of human SNB-19 cells assessed as reduction in cell viability measured after 48 hrs by SRB assay; format: functional
[38] = test system: SF-295; assay: Growth inhibition of human SF-295 cells assessed as reduction in cell viability measured after 48 hrs by SRB assay; format: functional
[39] = test system: SW-620; assay: Growth inhibition of human SW620 cells assessed as reduction in cell viability measured after 48 hrs by SRB assay; format: functional
[40] = test system: HT-29; assay: Growth inhibition of human HT-29 cells assessed as reduction in cell viability measured after 48 hrs by SRB assay; format: functional
[41] = test system: BT-549; assay: Growth inhibition of human BT-549 cells assessed as reduction in cell viability measured after 48 hrs by SRB assay; format: functional
[42] = test system: HL-60(TB); assay: Growth inhibition of human HL-60(TB) cells assessed as reduction in cell viability measured after 48 hrs by SRB assay; format: functional
[43] = test system: ACHN; assay: Growth inhibition of human ACHN cells assessed as reduction in cell viability measured after 48 hrs by SRB assay; format: functional
[44] = test system: SF-268; assay: Growth inhibition of human SF-268 cells assessed as reduction in cell viability measured after 48 hrs by SRB assay; format: functional
[45] = test system: MDA-MB-435; assay: Growth inhibition of human MDA-MB-435 cells assessed as reduction in cell viability measured after 48 hrs by SRB assay; format: functional
[46] = test system: NCI-H23; assay: Growth inhibition of human NCI-H23 cells assessed as reduction in cell viability measured after 48 hrs by SRB assay; format: functional

Mitogen-activated protein kinase 10, sequence (P53779 whole entry): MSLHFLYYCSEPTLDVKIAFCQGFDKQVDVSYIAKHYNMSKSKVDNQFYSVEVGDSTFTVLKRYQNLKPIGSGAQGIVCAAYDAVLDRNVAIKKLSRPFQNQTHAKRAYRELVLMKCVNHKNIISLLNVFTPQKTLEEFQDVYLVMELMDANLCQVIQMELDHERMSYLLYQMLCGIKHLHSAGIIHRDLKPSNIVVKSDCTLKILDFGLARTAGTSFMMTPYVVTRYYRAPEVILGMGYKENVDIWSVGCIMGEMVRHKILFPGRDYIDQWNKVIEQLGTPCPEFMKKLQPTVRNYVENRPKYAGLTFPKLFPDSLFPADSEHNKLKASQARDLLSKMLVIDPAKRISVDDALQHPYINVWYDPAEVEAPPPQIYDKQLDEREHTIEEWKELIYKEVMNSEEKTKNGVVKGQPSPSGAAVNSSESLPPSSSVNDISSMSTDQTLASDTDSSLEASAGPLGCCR
Mitogen-activated protein kinase 9, sequence (P45984 whole entry, looked up): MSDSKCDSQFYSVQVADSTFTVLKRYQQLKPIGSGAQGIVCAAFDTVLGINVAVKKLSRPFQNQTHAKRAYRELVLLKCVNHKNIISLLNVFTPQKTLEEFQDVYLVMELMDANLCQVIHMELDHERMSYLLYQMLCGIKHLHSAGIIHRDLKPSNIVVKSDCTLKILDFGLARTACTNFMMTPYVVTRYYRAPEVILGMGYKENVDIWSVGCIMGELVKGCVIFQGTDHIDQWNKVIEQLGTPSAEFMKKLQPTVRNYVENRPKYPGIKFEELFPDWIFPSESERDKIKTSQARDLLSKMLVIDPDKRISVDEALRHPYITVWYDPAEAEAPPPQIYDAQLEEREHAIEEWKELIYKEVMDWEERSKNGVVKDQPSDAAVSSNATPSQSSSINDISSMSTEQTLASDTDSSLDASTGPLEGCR

SMILES: CC(C)(C)n1cc(-c2ccnc(NCCCNS(=O)(=O)c3ccc(Cl)cc3)c2)c(-c2cccc(O)c2)n1
- GI50 [1]: 1570 nM
- GI50 [2]: 1740 nM
- GI50 [3]: 1800 nM
- GI50 [4]: 1570 nM
- inhibition [5]: 99.2%
- GI50 [6]: 1840 nM
- GI50 [7]: 1890 nM
- GI50 [8]: 1920 nM
- GI50 [9]: 1870 nM
- GI50 [10]: 2040 nM
- GI50 [11]: 1440 nM
- GI50 [12]: 1750 nM
- GI50 [13]: 1650 nM
- GI50 [14]: 1620 nM
- GI50 [15]: 2380 nM
- GI50 [16]: 2080 nM
- GI50 [17]: 2110 nM
- GI50 [18]: 1910 nM
- GI50 [19]: 1720 nM
- inhibition [20]: 98.9%
- GI50 [21]: 1920 nM
- GI50 [22]: 2750 nM
- GI50 [23]: 1660 nM
- GI50 [24]: 1730 nM
- GI50 [25]: 1860 nM
- GI50 [26]: 1940 nM
- GI50 [27]: 2060 nM
- GI50 [28]: 1890 nM
- GI50 [29]: 1370 nM
- GI50 [30]: 1880 nM
- GI50 [31]: 1840 nM
- GI50 [32]: 1660 nM
- GI50 [33]: 1490 nM
- GI50 [34]: 1360 nM
- GI50 [35]: 1920 nM
- GI50 [36]: 1650 nM
- GI50 [37]: 2180 nM
- GI50 [38]: 1790 nM
- GI50 [39]: 1770 nM
- GI50 [40]: 1440 nM
- GI50 [41]: 1670 nM
- GI50 [42]: 2510 nM
- GI50 [43]: 1970 nM
- GI50 [44]: 2180 nM
- GI50 [45]: 1790 nM
- GI50 [46]: 1680 nM

SMILES: CC(C)(C)n1cc(-c2ccnc(NCCCNS(=O)(=O)c3ccc(C(F)(F)F)cc3)c2)c(-c2cccc(O)c2)n1
- GI50 [1]: 1810 nM
- GI50 [2]: 1930 nM
- GI50 [3]: 1880 nM
- GI50 [4]: 1750 nM
- inhibition [5]: 98.6%
- GI50 [6]: 1980 nM
- GI50 [7]: 1580 nM
- GI50 [8]: 2070 nM
- GI50 [9]: 2130 nM
- GI50 [10]: 1820 nM
- GI50 [11]: 1600 nM
- GI50 [12]: 2210 nM
- GI50 [13]: 1690 nM
- GI50 [14]: 1710 nM
- GI50 [15]: 2310 nM
- GI50 [16]: 2150 nM
- GI50 [17]: 2350 nM
- GI50 [18]: 2330 nM
- GI50 [19]: 2000 nM
- inhibition [20]: 98.7%
- GI50 [21]: 1990 nM
- GI50 [22]: 1940 nM
- GI50 [23]: 1950 nM
- GI50 [24]: 1720 nM
- GI50 [25]: 2070 nM
- GI50 [26]: 2290 nM
- GI50 [27]: 1990 nM
- GI50 [28]: 1960 nM
- GI50 [29]: 1940 nM
- GI50 [30]: 1800 nM
- GI50 [31]: 1780 nM
- GI50 [32]: 1720 nM
- GI50 [33]: 1600 nM
- GI50 [34]: 1640 nM
- GI50 [35]: 2100 nM
- GI50 [36]: 1610 nM
- GI50 [37]: 1980 nM
- GI50 [38]: 1690 nM
- GI50 [39]: 1890 nM
- GI50 [40]: 1450 nM
- GI50 [41]: 1610 nM
- GI50 [42]: 2810 nM
- GI50 [43]: 1880 nM
- GI50 [44]: 1750 nM
- GI50 [45]: 1810 nM
- GI50 [46]: 1670 nM

SMILES: O=C1c2ccccc2-c2n[nH]c3cccc1c23
- GI50 [1]: 24400 nM
- GI50 [2]: 69300 nM
- GI50 [4]: 37500 nM
- GI50 [6]: 55100 nM
- GI50 [7]: 10500 nM
- GI50 [8]: 22600 nM
- GI50 [9]: 65300 nM
- GI50 [10]: 20000 nM
- GI50 [11]: 14600 nM
- GI50 [12]: 13100 nM
- GI50 [13]: 14600 nM
- GI50 [14]: 23100 nM
- GI50 [15]: 5930 nM
- GI50 [16]: 2620 nM
- GI50 [17]: 22900 nM
- GI50 [18]: 20400 nM
- GI50 [19]: 100000 nM
- GI50 [21]: 12200 nM
- GI50 [22]: 28200 nM
- GI50 [23]: 19500 nM
- GI50 [25]: 29500 nM
- GI50 [26]: 31900 nM
- GI50 [27]: 3560 nM
- GI50 [28]: 15300 nM
- GI50 [29]: 16900 nM
- GI50 [30]: 11400 nM
- GI50 [31]: 49000 nM
- GI50 [32]: 16400 nM
- GI50 [33]: 37600 nM
- GI50 [34]: 23300 nM
- GI50 [35]: 29000 nM
- GI50 [36]: 14800 nM
- GI50 [37]: 50000 nM
- GI50 [38]: 22500 nM
- GI50 [39]: 10900 nM
- GI50 [40]: 25900 nM
- GI50 [41]: 30800 nM
- GI50 [42]: 42100 nM
- GI50 [43]: 6640 nM
- GI50 [44]: 18400 nM
- GI50 [45]: 12800 nM
- GI50 [46]: 23800 nM
